From patent publication US10738082B2, “One-bead-two-compound macrocyclic library and methods of preparation and use” (University of South Florida, priority 2017, dated 2020)

How the values were obtained:
cell migration = settings: 10 μM, 24 hours
Procedure: Invasion and migration assays were performed as described before. Cells were plated into the top chambers and treated with either vehicle or 10 μM C-84. 24 hours later cells in top chamber were scraped and migrated cells were fixed with crystal violet staining.

cell invasion = assay: Cell invasion assay; assay type: cell-based; settings: 10 μM, 24 hours
Procedure: Invasion and migration assays were performed as described before.

GST protein = GST protein (Schistosoma japonicum, UniProt P08515); assay: Fluorescence polarization (FP) binding assay, GST protein
Sequence of GST protein (P08515 whole entry): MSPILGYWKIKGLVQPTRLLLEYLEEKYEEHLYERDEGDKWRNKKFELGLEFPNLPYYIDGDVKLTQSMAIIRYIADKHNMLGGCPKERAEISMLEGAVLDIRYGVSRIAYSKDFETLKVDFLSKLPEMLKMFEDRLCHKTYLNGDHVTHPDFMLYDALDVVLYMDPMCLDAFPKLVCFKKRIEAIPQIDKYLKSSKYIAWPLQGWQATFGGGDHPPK

SMILES | decrease in cell migration (cell migration) | decrease in cell invasion (cell invasion) [%] | GST binding weaker than EphA2 binding (GST protein; Kd GST vs Kd EphA2) [fold] | Kd (GST protein; fluorescence polarization, 50 nM FITC labeled AApeptide, GST 0.3125 to 55 μM, read-out: binding affinity to GST protein, Kd) [µM]
NC(=O)CN1C[C@H](Cc2ccccc2)NC(=O)CN(C(=O)CCC(=O)O)C[C@H](CCC(=O)O)NC(=O)CN(C(=O)Cc2ccc3c(c2)OCO3)C[C@H](CCC(=O)O)NC(=O)CN(C(=O)CCC2CCCCC2)C[C@H](Cc2ccccc2)NC(=O)c2ccc(cc2)CSCCC1=O [C-84] | around 70% | ~80 |  | 
NC(=O)[C@H](CCCCNC(=S)Nc1ccc(-c2c3ccc(=O)cc-3oc3cc(O)ccc23)c(C(=O)O)c1)NC(=O)CN1C[C@H](Cc2ccccc2)NC(=O)CN(C(=O)CCC(=O)O)C[C@H](CCC(=O)O)NC(=O)CN(C(=O)Cc2ccc3c(c2)OCO3)C[C@H](CCC(=O)O)NC(=O)CN(C(=O)CCC2CCCCC2)C[C@H](Cc2ccccc2)NC(=O)c2ccc(cc2)CSCCC1=O [YS-D-44] |  |  | ~150 | 12.3
